Starred links: 1 amine or outer side, 2 acyl side, 3 side chain; linkers in the order of their positions; H or OH if unused. Positions of bridges follow the written chain, without caps; N, C: chain ends. Non-standard residues stand in square brackets, D forms with d. Residues, ends and D or L forms follow the SMILES beside them. No end group written: not given here. Trp(2-yl) = O=C([C@H](Cc1c([*:3])[nH]c2ccccc12)N[*:1])[*:2]; {TAMRA} = TAMRA dye attached N-terminally via two o linkers; {Cys} = C-terminal o linker then cysteine amide; Leu(4R-OH,5-OH) = C[C@](O)(CO)C[C@H](N)C(=O)O; cisHyp = O=C(O)[C@@H]1C[C@H](O)CN1
Assays:
[1] = tested on: mice; assay: Toxicity study in mice, single intravenous injection; type: in vivo, mouse; settings: single intravenous injection 4 mg/kg, female and male mice, observed 6 weeks
Description: Preliminary toxicity study was carried out. 100 μl of 150 μM of peptide was given as a single injection in vein tail to 4 female C3D2F1 and 4 male C57/B1 mice. The final concentration was 4 mg/kg. Mice were observed by a veterinarian the day after an injection and during the next 6 weeks.

[2] = tested on: HeLa cells; assay: Membrane leakage assay with cell-impermeable Phalloidin-TRITC and SYTOX-Orange; type: cell-based, human; settings: peptide up to 10 μM, 1 hr, pH 6.5 or 7.4
Description: (§1) The peptide's cytotoxicity and its ability to induce membrane leakage was investigated. […] Membrane leakage was tested by incubation of HeLa cells at various concentrations of peptide (up to 10 μM) at pH 7.4 and 6.5 for 1 hr, followed by the addition of cell-impermeable agents: Phalloidin-TRITC and nuclear-staining SYTOX-Orange. […] The uptake of Phalloidin-TRITC or SYTOX-Orange was 10 times less than the uptake in cells treated with triton, which used for cell membrane permeabilization.
HeLa cells were loaded in 96 well plates (2,000 cells per well), incubated for 24 hours in DMEM supplemented with 10% FBS, 100 units/ml penicillin, 0.1 mg/ml streptomycin, 2 mM glutamine in a humidified atmosphere of 5% CO2 and 95% air at 37° C. The growth medium was then replaced with PBS buffer containing 1 mM CaCl2 and 1 mM MgCl2 at pH7.4 or 6.5 and increasing amounts of the peptide (0.5, 2, 5 and 10 μM). After 1 hour, 2 μM of Phalloidin-TRITC and 0.5 μM of SYTOX-Orange (Molecular Probes) were added for 10 min and, then, washed with PBS buffer, pH7.4. The rhodamine fluorescence was measured at 580 nm with excitation at 544 nm by plate-reader. The cell membrane was subsequently disrupted by adding 0.5% Triton-100 and a new portion of the 2 μM of Phalloidin-TRITC and 0.5 μM of SYTOX-Orange followed by washing with PBS. The fluorescence signal was detected before and after washing, respectively. […]

[3] = tested on: HeLa cells; assay: Cytotoxicity assay (CellTiter 96 AQueous One colorimetric); type: cell-based, human; settings: concentrations up to 16 μM, 24 hrs, physiological conditions
Description: as §1
Cytotoxicity was tested using a standard colorimetric assay according to an established protocol provided by Promega, Inc. HeLa cells were loaded in the wells of 96 well plates (20,000 cells per well), incubated for 24 hours in DMEM supplemented with 10% FBS, 100 units/ml penicillin, 0.1 mg/ml streptomycin, 2 mM glutamine in a humidified atmosphere of 5% CO2 and 95% air at 37° C. The growth medium was then replaced with the same medium but containing 1% of FBS and increasing amounts of pHLIP (0.5, 1, 2, 4, 8 and 16 μM). After 24 hours of incubation, the solution was replaced with DMEM and a colorimetric reagent (CellTiter 96 AQueous One Solution Assay) was added for 1 hour followed by measuring absorbance at 490 nm in the plate-reader. All samples were prepared in triplicate.

[4] = tested on: Human tumor MDA-MB-231; assay: Whole-body fluorescence imaging of nude mice bearing MDA-MB-231 tumor; type: in vivo, mouse; settings: 100 μl of 50 μM into tail vein, 3 mm tumor; time point not stated
Description: To study the pHLIP distribution in vivo, covalently attached to the pHLIP near […] infrared fluorescent dye Cy5.5 was injected into mice bearing tumor and performed whole-body fluorescence imaging. Human tumor MDA-MB-231 was originated by injection of tumor cells (2×10^7 cells/flank/0.2 ml) in the right flank of adult athymic female nude mice. When the tumor reached the size of 3 mm in diameter, 100 μl of 50 μM of Cy5.5 alone or Cy5.5 covalently attached to the pHLIP was given as a single injection into vein tail. The imaging was performed immediately, after 1, 2, 4 hour and next day after 24 hours (FIGS. 9 and 10). The dye and peptide-dye accumulated in liver and kidney, the organs, which usually readily absorb any compounds. The ratios of (liver+kidney)/tumor were 5.9 and 3.6 in mice to which dye alone and pHLIP-dye were injected accumulation for mice. […] The accumulation of pHLIP-Cy5.5 in tumor was in 1.6 times higher than accumulation of dye alone. The ration of (liver+kidney)/tumor was 1.6 and 2.6 for pHLIP-Cy5.5 and Cy5.5 alone, respectively.
Human breast adenocarcinoma MDA-MB-231 (HTB-26, ATCC) cells was cultured in Leibovitz's L-15 medium supplemented with 10% fetal bovine serum, 100 units/ml penicillin, 0.1 mg/ml streptomycin, 2 mM glutamine in humidified atmosphere of 5% CO2 and 95% air at 37° C. […]

[5] = tested on: HeLa cells; assay: Translocation of PNA into HeLa cells (fluorescence microscopy); type: cell-based, human; settings: PNA without pHLIP, pH 7.4 or 6.5 (data not shown)
[6] = tested on: HeLa cells; assay: Translocation and release of Phalloidin-TRITC in HeLa cells (fluorescence microscopy of actin filaments); type: cell-based, human; settings: pH 6.0-7.4, in the presence or absence of peptide (not conjugated)
From the text: To test the ability of pHLIP to translocate peptides across the cell membrane a water soluble cyclic peptide, phalloidin, from the Amanita phalloicles mushroom was chosen. […] Fluorescent phalloidin is commonly used to label actin filaments in permealized cells. Actin filaments stained with fluorescent phalloidin have an easily recognizable filamentous pattern, which cannot be mistaken for the other cellular structures, organelles or membrane staining. Therefore the delivery of fluorescent phalloidin by pHLIP into live cells can easily be verified by fluorescence microscopy. Fluorescently labeled phalloidin (Phalloidin-TRITC) via an S-S bond to the C-terminus of pHLIP was conjugated using a bifunctional cross-linker. Cells were incubated with a pHLIP-S-S-Phalloidin-TRITC cleavable construct at different pHs and subsequently washed with cell culture medium solution, pH 7.4. […]
For the fluorescence microscopy studies, the cells were grown in 35 mm dishes with 10 mm glass bottom windows coated with collagen. […] The medium pH was measured before and after incubation. […] Fluorescent images were taken using an inverted epi-fluorescence microscope Olympus IX71. […] Each time fluorescence microscopy experiments were performed and observed the translocation of cargo by pHLIP, it was verified that the labeled cells were alive by using of dead cell marker SYTOX-Green (Molecular Probes).

[7] = tested on: actin filaments; settings: cited from earlier work
[8] = tested on: HeLa cells; assay: pH-dependent delivery of dansyl dye into live HeLa cells (fluorescence microscopy); type: cell-based, human; settings: dye alone, without peptide
Description: pHLIP conjugated via a disulfide bond to dansyl dye (FIG. 3a) was tested for delivery of the dye into live HeLa cells at different pHs (FIG. 3b). The cells were incubated with the fluorescently-labeled peptide for 15 min at pH 5.5, 6.5, 7.0 or 7.4 and then washed at pH 7.4 to remove any reversibly bound peptide. […] The relative uptakes were 18%, 48%, 78% and 100% at pH7.4, 7.0, 6.5 and pH5.5, respectively.
For the fluorescence microscopy studies, the cells were grown in 35 mm dishes with 10 mm glass bottom windows coated with collagen. Cells were washed with PBS buffer containing 1 mM CaCl2 and 1 mM MgCl2 with pH 5.5, 6.5, 7.0 or 7.4 and then incubated in PBS at the experimental pH in the absence or presence of varied concentrations (0.1-7 μM) of the pHLIP-S-S-dansyl, pHLIP-dye (TexasRed or Rhodamine), pHLIP-S-S-Phalloidin-TRITC, pHLIP-Phalloidin-TRITC or pHLIP-S-S-PNA-TAMRA constructs. The medium pH was measured before and after incubation. The time of incubation was varied from 15 to 60 min. […] Fluorescent images were taken using an inverted epi-fluorescence microscope Olympus IX71. […] Each time fluorescence microscopy experiments were performed and observed the translocation of cargo by pHLIP, it was verified that the labeled cells were alive by using of dead cell marker SYTOX-Green (Molecular Probes).

[9] = tested on: HeLa cells; settings: literature report; cited from earlier work

AAEQNPIYWARYADWLFTTPLLLLDLALLVDADEGTCG [pHLIP]
physiological and behavioral changes [1]: No physiological and behavioral changes | uptake of Phalloidin-TRITC or SYTOX-Orange in peptide-treated cells [2]: no increase in uptake | uptake of Phalloidin-TRITC or SYTOX-Orange relative to cells treated with triton [2]: 10 times less | cell viability [3]: does not affect cell viability

CCN1\C(=C/C=C/C=C/C2=[N+](CCCCCC(=O)O)c3ccc4c(S(=O)(=O)O)cc(S(=O)(=O)O)cc4c3C2(C)C)C(C)(C)c2c1ccc1c(S(=O)(=O)[O-])cc(S(=O)(=O)O)cc21 [Cy5.5]
ratio of (liver+kidney)/tumor, first statement [4]: 5.9 | ratio of (liver+kidney)/tumor, second statement [4]: 2.6

TAMRA-o-o-CATAGTATAAGT-o-Cys-NH2 (all peptide nucleic acid (PNA), 5' {TAMRA}, 3' {Cys}) [PNA-TAMRA]
translocation through the cell membrane [5]: No translocation

Phalloidin-TRITC
fluorescent staining of actin filaments [6]: did not give fluorescent staining of actin filaments

C[C@@H]1NC(=O)[C@H](C[C@@](C)(O)CO)NC(=O)[C@@H]2Cc3c([nH]c4ccccc34)SC[C@H](NC(=O)[C@@H]([C@H](C)O)NC1=O)C(=O)N1C[C@@H](O)C[C@H]1C(=O)N[C@@H](C)C(=O)N2 [Phalloidin] (cyclo(A[dT]C[cisHyp]A[Trp(2-yl)][Leu(4R-OH,5-OH)]); thioether 3-6)
lowering of the critical concentration for actin polymerization [7]: up to 30 fold

dansyl
penetration of cells [8]: does not penetrate cells

C/C1=C\[C@H](C)C[C@H](C)OC(=O)C[C@H](c2ccc(O)cc2)NC(=O)[C@@H](Cc2c(Br)[nH]c3ccccc23)N(C)C(=O)[C@H](C)NC(=O)[C@@H](C)C1 [Jasplakinolide]
multinucleation of cells (reported) [9]: appearance of multinucleated cells

From patent US9676823B2, “Selective delivery of molecules into cells or marking of cells in diseased tissue regions using environmentally sensitive transmembrane peptide” (priority 2005, dated 2017)
